Experimental data reported in PMC5882637, “Ethanol potentiates the genotoxicity of the food-derived mammary carcinogen PhIP in human estrogen receptor-positive mammary cells: mechanistic support for lifestyle factors (cooked red meat and ethanol) associated with mammary cancer” (Archives of Toxicology, 2018).
Values belong to the compound of their own block, whether it stands above or below them.

Key:
[1] = system: intracellular ROS in MCF-7 cells; experiment: ROS assay (carboxy-DCF-DA), MCF-7; format: cell-based, human; details: for intracellular ROS levels: ethanol 50 mM or PhIP 100 µM alone, Fig. 6c
Description: STAT3 inhibitor was dissolved in DMSO.
Production of reactive oxygen species (ROS) was measured using 2′,7′–dichlorofluorescein diacetate method. Carboxy-2′,7′-dichlorofluorescein diacetate (carboxy-DCF-DA) is taken up by viable cells and cleaved by endogenous esterases to the nonfluorescent derivative, reduced carboxy-dichlorofluorescein (carboxy-DCFH). This product is retained in the cytosol where it can be oxidized by intracellular ROS to the highly fluorescent product, oxidised carboxy-dichlorofluorescein (carboxy-DCF). The intensity of fluorescence is proportional to intracellular ROS levels. MCF-7 cells (2 × 10^4/well) were seeded into 24-well plates in 1% FBS and allowed to attach overnight. Cells were treated with PhIP for 24 h and then treated with Carboxy-DCFDA (20 µL, 30 µM) in media containing 1% FBS (1 ml) and incubated for 30 min at 37 °C, washed with PBS and new media (1% FBS) was added. Fluorescent measurements (excitation at 485 nm and emission at 520 nm) were then taken from 10 min to 24 h using a fluorescence plate reader (BMG POLARstar Galaxy Labtech, Ortenberg, Germany). The concentration of DMSO (0.2%) was identical in all treatments and had no effect on ROS production at this concentration.

MCF-7 cells [2] = experiment: Cytotoxicity (cell counting, TrypanBlue exclusion), MCF-7
Description: (§1) Cells were cultured routinely in 75-cm^2 flasks in a humidified incubator at 37 °C, 5% CO2.
(§2) Briefly, cells were seeded at a density of 5 × 10^4 cells per well in 24-well plate. Cells were treated with PhIP or ethanol as detailed previously. Following treatment with chemicals and harvesting (48 h), cells were trypsinised, the cell concentration adjusted to 2 × 10^5 and re-suspended in serum-free R0 (serum-free media) with 2% pluronic acid medium (GIBCO, Life technologies) and cytotoxicity was determined by counting cells in a haemocytometer with TrypanBlue exclusion (GIBCO, Life technologies). For the MN assay, cells were spread on a microscope slide using a cytospin. Cells at a density of 2 × 10^4 cells per slide were fixed with 100% methanol and stained for 60 s with acridine orange (0.1 mg ml^−1 dissolved in PBS, Sigma-Aldrich). Frequency of MN was scored in 2000 cells per sample and three biological replicates were performed per treatment.

[3] = system: intracellular ROS in MCF-7 cells; design: method as in Li et al. [2013]; Martinez-Outschoorn et al. [2010]; details: NAC 10 mM, ref Li et al. [2013], Martinez-Outschoorn et al. [2010]; cited from earlier work
MCF-7 cells [4] = experiment: Micronucleus (MN) assay, MCF-7
Description: as §1, §2

CYP1B1 mRNA expression [5] = experiment: RT-qPCR CYP1B1 mRNA, MCF-7
Description: as §1
(§3) Following treatment, cells were lysed using TRIZOL reagent and chloroform (0.2 ml) was added in each sample and centrifuged 12,000xg (10 min 2–8 °C). The upper aqueous phase was transferred to a fresh tube and 5 µg of RNase-free glycogen (as carrier to aqueous phase) and 0.5 ml of isopropyl alcohol was added to precipitate RNA and incubated (37 °C, 10 min). Following incubation, lysates were centrifuged at 12,000xg (10 min 2–8 °C). The gel-like pellet was washed with ethanol and re-dissolved in RNase-free water with heating (55–60 °C). Extracted RNA was quantified by UV spectroscopy (UV–VIS Nano-spectrophotometer, Implen, Essex, UK) and purity was assessed from 260/280 nm and 260/230 nm ratios. Reverse transcription (RT) of extracted RNA (100–500 ng) was completed according to manufacturer’s protocol (Invitrogen) and qPCR was performed using predesigned Taqman gene expression assays and FAST PCR master mix (Taqman, Applied Biosystems, Life technologies) using a StepOnePlus fast real-time PCR system (Applied Biosystems, Life technologies). Target gene expression was normalized to GAPDH and quantified using the delta-Ct method (Livak and Schmittgen [2001]).

CYP2E1 mRNA expression [6] = experiment: RT-qPCR CYP2E1 mRNA, MCF-7
Description: as §1
For STAT3 inhibition, cells were co-treated for 24 h with PhIP and 25 µM STAT3 inhibitor (STAT3 inhibitor VIII 5, 15 diphenylporphyrin, Millipore, Feltham, UK). STAT3 inhibitor was dissolved in DMSO. For ethanol treatment, media was supplemented with different concentrations of ethanol (10 mM-100 mM, Sigma-Aldrich) and was added to the cells. In some experiments, N-acetyl-cysteine (NAC) (10 mM, Sigma-Aldrich) diluted in phosphate-buffered saline (PBS) was added to incubations.
as §3

CYP1B1 mRNA expression [7] = experiment: RT-qPCR CYP1B1 mRNA, MDA-MB-231; details: 24 h, E2 1 µM, Fig. 2d
Description: as §1, §3

CYP1A1 [8] = experiment: RT-qPCR CYP1A1 mRNA, MDA-MB-231; format: cell-based, human; details: data not shown
Description: as §1, §3

STAT3 mRNA expression = experiment: qPCR STAT3 mRNA, MCF-7; format: cell-based, human; details: 24 h PhIP treatment, Fig. 3b
Description: as §1, §3

CYP2E1 mRNA expression [9] = experiment: RT-qPCR CYP2E1 mRNA, MDA-MB-231; format: cell-based, human; details: PhIP treatment, Fig. 3a
Description: as §1, §3

miR378 expression = experiment: qPCR miR378, MCF-7; format: cell-based, human; details: 24 h PhIP treatment, Fig. 3b
Description: as §1, §3

CYP1A2 mRNA expression [10] = experiment: RT-qPCR CYP1A2 mRNA, MCF-7; details: 24 h, E2 1 µM, Fig. 2a
Description: as §1, §3

CYP1A2 mRNA expression [11] = experiment: RT-qPCR CYP1A2 mRNA, MDA-MB-231; details: 24 h, E2 1 µM, Fig. 2c
Description: as §1, §3

JAK2 mRNA expression = experiment: qPCR JAK2 mRNA, MCF-7; format: cell-based, human; details: PhIP-treated, Fig. 3b
Description: as §1, §3

CYP1A1 [12] = experiment: RT-qPCR CYP1A1 mRNA, MCF-7; format: cell-based, human; details: data not shown
Description: as §1, §3

MDA-MB-231 cells [13] = experiment: Cytotoxicity (cell counting, TrypanBlue exclusion), MDA-MB-231
Description: as §1, §2

MDA-MB-231 cells [14] = experiment: Micronucleus (MN) assay, MDA-MB-231
Description: as §1, §2

[15] = PhIP 100 nM, three independent cultures

Structure (SMILES): CC(=O)N[C@@H](CS)C(=O)O [NAC, N-acetyl-cysteine, reference compound]
- effect of NAC on ethanol-induced ROS production ([1]; ethanol 50 mM plus NAC 10 mM, Fig. 7c): clear decrease
- effect of NAC on cell survival (MCF-7 cells [2]; ethanol 50 mM and PhIP 100 µM with NAC 10 mM, Fig. 7d): did not affect
- accumulation of ROS [3]: abolish
- effect of NAC on genotoxicity of etoposide (MCF-7 cells [4]; NAC 10 mM, Fig. 7e): little effect
- effect of NAC on genotoxicity of PhIP plus ethanol (MCF-7 cells [4]; NAC 10 mM, p = 0.01, Fig. 7e): decreased the genotoxicity of PhIP plus ethanol significantly

Structure (SMILES): Cn1c(N)nc2ncc(-c3ccccc3)cc21 [PhIP, 2-amino-1-methyl-6-phenylimidazo[4,5-b]pyridine]
- CYP1B1 mRNA expression vs vehicle control (CYP1B1 mRNA expression [5]; MCF-7, 24 h, E2 1 µM, Fig. 2b): can induce
- CYP1B1 induction in MCF-7 compared to MDA-MB-231 cells (CYP1B1 mRNA expression [5]; PhIP, Fig. 2): higher
- CYP2E1 mRNA expression (CYP2E1 mRNA expression [6]; PhIP treatment, Fig. 3a): induced CYP2E1 mRNA expression in a dose-dependent manner
- ROS levels ([1]; PhIP 24 h, pronounced over the first 60 min, Fig. 5a): dose-dependent increase
- intracellular ROS levels [1]: Elevated
- CYP1B1 mRNA expression vs vehicle control (CYP1B1 mRNA expression [7]): can induce
- CYP1A1 induction (CYP1A1 [8]): failed to induce
- STAT3 mRNA expression (STAT3 mRNA expression): dose-dependent upregulation
- CYP2E1 mRNA expression (CYP2E1 mRNA expression [9]): but not in MDA-MB-231 cells
- miR378 expression (miR378 expression): no change
- CYP1A2 mRNA expression vs vehicle control (CYP1A2 mRNA expression [10]): can induce
- change in cell survival following treatment (MCF-7 cells [2]; Fig. 1a): No significant change
- Cytotoxicity (percent survival ± SD) (MCF-7 cells [2]; [15]): 86% ± 2.4
- Cytotoxicity (percent survival ± SD) (MCF-7 cells [2]; PhIP 1 µM): 85.6% ± 2.4
- Cytotoxicity (percent survival ± SD) (MCF-7 cells [2]; PhIP 10 µM): 85.8% ± 2.6
- Cytotoxicity (percent survival ± SD) (MCF-7 cells [2]; PhIP 100 µM): 82.7% ± 1.7
- CYP1A2 mRNA expression vs vehicle control (CYP1A2 mRNA expression [11]): can induce
- JAK2 mRNA expression (JAK2 mRNA expression): dose-dependent increase
- CYP1A1 induction (CYP1A1 [12]): failed to induce
- change in cell survival following treatment (MDA-MB-231 cells [13]; Fig. 1b): No significant change
- Cytotoxicity (percent survival ± SD) (MDA-MB-231 cells [13]; PhIP 100 nM): 87.2% ± 0.9
- Cytotoxicity (percent survival ± SD) (MDA-MB-231 cells [13]; PhIP 1 µM): 88.1% ± 0.9
- Cytotoxicity (percent survival ± SD) (MDA-MB-231 cells [13]; PhIP 10 µM): 90.4% ± 4.3
- Cytotoxicity (percent survival ± SD) (MDA-MB-231 cells [13]; PhIP 100 µM): 87.7% ± 1.5
- MN frequency (mean ± SD) (MDA-MB-231 cells [14]; PhIP 100 nM): 3.2 ± 2.5 MN/1000 cells
- MN frequency (mean ± SD) (MDA-MB-231 cells [14]; PhIP 1 µM): 4.7 ± 1.8 MN/1000 cells
- MN frequency (mean ± SD) (MDA-MB-231 cells [14]; PhIP 10 µM): 9 ± 0.9 MN/1000 cells
- MN frequency (mean ± SD) (MDA-MB-231 cells [14]; PhIP 100 µM): 13.7 ± 1.3 MN/1000 cells
- MN frequency (mean ± SD) (MCF-7 cells [4]; [15]): 12.8 ± 5.1 MN/1000 cells
- MN frequency (mean ± SD) (MCF-7 cells [4]; PhIP 1 µM): 22.3 ± 2.6 MN/1000 cells
- MN frequency (mean ± SD) (MCF-7 cells [4]; PhIP 10 µM): 29.2 ± 3.4 MN/1000 cells
- MN frequency (mean ± SD) (MCF-7 cells [4]; PhIP 100 µM): 49 ± 3.5 MN/1000 cells

- effect of STAT3 inhibitor on CYP2E1 mRNA upregulation by PhIP (CYP2E1 mRNA expression [6]; inhibitor 25 µM co-treated with PhIP 24 h, Fig. 4a): completely abolished
Structure (SMILES): C1=Cc2nc1cc1ccc([nH]1)c(-c1ccccc1)c1nc(cc3ccc([nH]3)c2-c2ccccc2)C=C1 [STAT3 inhibitor, 5, 15 diphenylporphyrin, reference compound]
- effect of STAT3 inhibitor on H2O2-induced ROS ([1]; Fig. 5b): failed to attenuate
- effect of STAT3 inhibitor on ROS production by PhIP ([1]; PhIP 100 µM 24 h, inhibitor 25 µM, Fig. 5b): significantly reduced

Structure (SMILES): CCO [ethanol]
- ethanol concentration at which CYP2E1 increase was significant (CYP2E1 mRNA expression [6]; Fig. 6a): 50 to 100 mM
- CYP2E1 expression (CYP2E1 mRNA expression [6]; ethanol 10 to 100 mM, Fig. 6a): dose-dependent increase
- intracellular ROS levels [1]: Elevated
- effect of addition of ethanol on genotoxicity of etoposide (MCF-7 cells [4]; Fig. 7b): No change
- MN induction (MCF-7 cells [4]; ethanol 50 mM, 24 h, Fig. 7b): did not significantly induce
